Measured values from ChEMBL document CHEMBL6182943, “Identification of 4'-Thiouridine as an Orally Available Antiviral Agent Targeting Both RdRp and NiRAN Functions of SARS-CoV-2 Nsp12” (J Med Chem, 2025).
Activity calls are given as the source filed them. The calls are words filed in the database; no cut-off is given here.

Experiments:
SARS-CoV-2 [1] = assay: Antiviral activity against SARS-CoV-2 infected in african green monkey Vero cells assessed as reduction in number of spike-protein expressing cells pre-infected for 30 mins followed by compound addition and measured 48 hrs post-infection by DAPI staining based immunofluorescence analysis; type: functional, organism-based; settings: Severe acute respiratory syndrome coronavirus 2, Vero
[2] = Cytotoxicity against African green monkey Vero cells assessed as reduction in cell viability incubated for 48 hrs by MTT assay; type: toxicity, cell-based; settings: chlorocebus sabaeus
[3] = Selectivity index, ratio of CC50 for cytotoxicity against African green monkey Vero cells to EC50 for antiviral activity against SARS-CoV-2 infected in african green monkey Vero cells assessed as reduction in number of spike-protein expressing cells; type: toxicity, cell-based; settings: read-out: Ratio CC50/EC50
[4] = test system: Severe acute respiratory syndrome coronavirus 2; assay: Inhibition of SARS-CoV-2 Nsp9/Nsp12 using 5'-pppLS10 as substrate assessed as inhibition of NiRAN-mediated RNAylation of Nsp9 by measuring increase in compound-conjugated Nsp9 at 1 to 100 uM incubated for 1 hrs by coomassie blue staining based SDS-PAGE analysis; settings: dose 1-100 µM
SARS-CoV-2 [5] = assay: Antiviral activity against SARS-CoV-2 infected in hACE2 expressing female B6.Cg-Tg(K18-ACE2)2Prlmn/J mouse model assessed as reduction in body weight loss at 50 mg/kg, po preadministered twice daily for 4 days at 8 hrs interval with four hours before and after viral challenge and measured 8 days post viral challenge; type: functional, organism-based; settings: Severe acute respiratory syndrome coronavirus 2, time 8.0 day
SARS-CoV-2 [6] = assay: Antiviral activity against SARS-CoV-2 infected in hACE2 expressing female B6.Cg-Tg(K18-ACE2)2Prlmn/J mouse model assessed as survival at 50 mg/kg, po preadministered twice daily for 4 days at 8 hrs interval with four hours before and after viral challenge and measured 14 days post viral challenge relative to control; type: functional; settings: Severe acute respiratory syndrome coronavirus 2, 336 h, time 14 day
SARS-CoV-2 [7] = assay: Antiviral activity against SARS-CoV-2 infected in hACE2 expressing female B6.Cg-Tg(K18-ACE2)2Prlmn/J mouse model assessed as reduction in body weight loss at 50 mg/kg, po preadministered twice daily for 4 days at 8 hrs interval with four hours before and after viral challenge and measured 14 days post viral challenge; type: functional, organism-based; settings: Severe acute respiratory syndrome coronavirus 2, time 14.0 day
[8] = target: Replicase polyprotein 1ab (Severe acute respiratory syndrome coronavirus 2) (UniProt P0DTD1); assay: Inhibition of SARS-CoV-2 Nsp12-Nsp7-Nsp8-2 RNA dependent RNA polymerase activity using partially double stranded RNA as substrate assessed as generation of abortive transcripts by mis-incorporation into RNA at 100 uM incubated for 30 mins in presence of UTP by gel electrophoresis based primer extension assay
[9] = target: Replicase polyprotein 1ab (Severe acute respiratory syndrome coronavirus 2) (UniProt P0DTD1); assay: Inhibition of SARS-CoV-2 Nsp12-Nsp7-Nsp8-2 RNA dependent RNA polymerase activity using partially double stranded RNA as substrate assessed as reduction in RNA elongation at 1 to 100 uM incubated for 30 mins in presence of UTP and GTP/CTP by gel electrophoresis based primer extension assay; settings: dose 1-100 µM
[10] = target: Replicase polyprotein 1ab (Severe acute respiratory syndrome coronavirus 2) (UniProt P0DTD1); assay: Inhibition of SARS-CoV-2 Nsp12-Nsp7-Nsp8-2 RNA dependent RNA polymerase activity using partially double stranded RNA as substrate assessed as accumulation of abortive transcripts at 2.5 to 250 uM incubated for 30 mins in presence of UTP,ATP and GTP/CTP by gel electrophoresis based primer extension assay; settings: dose 2.5-250 µM
[11] = target: Replicase polyprotein 1ab (Severe acute respiratory syndrome coronavirus 2) (UniProt P0DTD1); assay: Inhibition of SARS-CoV-2 Nsp12-Nsp7-Nsp8-2 RNA dependent RNA polymerase activity using partially double stranded RNA as substrate assessed as generation of abortive transcripts by mis-incorporation into RNA at 100 uM incubated for 30 mins in presence of ATP by gel electrophoresis based primer extension assay
[12] = target: Replicase polyprotein 1ab (Severe acute respiratory syndrome coronavirus 2) (UniProt P0DTD1); assay: Inhibition of SARS-CoV-2 Nsp12-Nsp7-Nsp8-2 RNA dependent RNA polymerase activity using partially double stranded RNA as substrate assessed as mis-incorporation into RNA by measuring increase in abortive transcripts length incubated for 30 mins in presence of ATP by gel electrophoresis based primer extension assay; settings: dose 1-100 µM
[13] = target: Replicase polyprotein 1ab (Severe acute respiratory syndrome coronavirus 2) (UniProt P0DTD1); assay: Inhibition of SARS-CoV-2 Nsp12-Nsp7-Nsp8-2 RNA dependent RNA polymerase activity using partially double stranded RNA as substrate assessed as accumulation of abortive transcripts incubated for 30 mins in presence of UTP,ATP and GTP/CTP by gel electrophoresis based primer extension assay; settings: dose 2.5-250 µM
[14] = test system: Severe acute respiratory syndrome coronavirus 2; assay: Inhibition of SARS-CoV-2 Nsp9/Nsp12 using 5'-pppLS10 as substrate assessed as inhibition of NiRAN-mediated RNAylation of Nsp9 by measuring increase in compound-conjugated Nsp9 incubated for 1 hrs by coomassie blue staining based SDS-PAGE analysis; settings: dose 1-100 µM
[15] = test system: Severe acute respiratory syndrome coronavirus 2; assay: Inhibition of SARS-CoV-2 Nsp9/Nsp12 using 5'-pppLS10 as substrate assessed as inhibition of NiRAN-mediated AMPylation of Nsp9 at 1 to 100 uM preincubated for 5 mins followed by ATP and [alpha-32P]ATP addition and measured after 10 mins by phosphorimaging based SDS-PAGE analysis; settings: dose 1-100 µM, time 15.0 min
[16] = test system: Severe acute respiratory syndrome coronavirus 2; assay: Inhibition of SARS-CoV-2 Nsp9/Nsp12 using 5'-pppLS10 as substrate assessed as inhibition of NiRAN-mediated UMPylation of Nsp9 at 1 to 100 uM preincubated for 5 mins followed by UTP and [alpha-32P]UTP addition and measured after 10 mins by phosphorimaging based SDS-PAGE analysis; settings: dose 1-100 µM, time 15.0 min
SARS-CoV-2 [17] = assay: Antiviral activity against SARS-CoV-2 infected in African green monkey Vero cells assessed as reduction in viral N protein level at 0.1 uM measured after 1 day by Western blot analysis; type: functional, organism-based; settings: Severe acute respiratory syndrome coronavirus 2
[18] = target: Replicase polyprotein 1ab (Severe acute respiratory syndrome coronavirus 2) (UniProt P0DTD1); assay: Inhibition of SARS-CoV-2 Nsp12-Nsp7-Nsp8-2 RNA dependent RNA polymerase activity using partially double stranded RNA as substrate assessed as generation of abortive transcripts by mis-incorporation into RNA at 100 uM incubated for 30 mins in presence of ATP and GTP/CTP by gel electrophoresis based primer extension assay
[19] = target: Replicase polyprotein 1ab (Severe acute respiratory syndrome coronavirus 2) (UniProt P0DTD1); assay: Inhibition of SARS-CoV-2 Nsp12-Nsp7-Nsp8-2 RNA dependent RNA polymerase activity using partially double stranded RNA as substrate assessed as generation of abortive transcripts by mis-incorporation into RNA at 100 uM incubated for 30 mins in presence of UTP and GTP/CTP by gel electrophoresis based primer extension assay
dengue virus type 2 = assay: Antiviral activity against Dengue virus 2 infected in BHK-21 cells transfected with Renilla luciferase tagged viral subgenomic replicon incubated for 48 hrs by luciferase based assay; type: functional, organism-based; settings: BHK-21, 48 h
[20] = Cytotoxicity against golden hamster BHK-21 cells assessed as reduction in cell viability by MTT assay; type: toxicity, cell-based, Mesocricetus auratus
[21] = Selectivity index, ratio of CC50 for cytotoxicity against golden hamster BHK-21 cells to EC50 for antiviral activity against Dengue virus 2 infected in BHK-21 cells transfected with Renilla luciferase tagged viral subgenomic replicon; type: toxicity, cell-based; settings: read-out: Ratio CC50/EC50
Influenza A virus (H1N1) = assay: Antiviral activity against Influenza A virus A/Puerto Rico/8/34 (H1N1) infected in MDCK cells assessed as reduction in virus-induced cytopathic effect incubated for 3 days in presence of TPCK-treated trypsin by MTT assay; type: functional, organism-based; settings: 72 h
Influenza A virus = assay: Antiviral activity against Influenza A virus A/Hong Kong/8/68 (H3N2) infected in MDCK cells assessed as reduction in virus-induced cytopathic effect incubated for 3 days in presence of TPCK-treated trypsin by MTT assay; type: functional, organism-based; settings: 72 h
Influenza B virus = assay: Antiviral activity against Influenza B virus B/Lee/40 infected in MDCK cells assessed as reduction in virus-induced cytopathic effect incubated for 3 days in presence of TPCK-treated trypsin by MTT assay; type: functional, organism-based; settings: B/Lee/40, MDCK, 72 h
[22] = Cytotoxicity against MDCK cells assessed as reduction in cell viability incubated for 3 days by MTT assay; type: toxicity, cell-based, Canis lupus familiaris; settings: dog, time 3 day
[23] = Selectivity index, ratio of CC50 for cytotoxicity against MDCK cells to EC50 for antiviral activity against Influenza A virus A/Puerto Rico/8/34 (H1N1) infected in MDCK cells assessed as reduction in virus-induced cytopathic effect; type: toxicity, cell-based; settings: dog, read-out: Ratio CC50/EC50
[24] = Selectivity index, ratio of CC50 for cytotoxicity against MDCK cells to EC50 for antiviral activity against Influenza A virus A/Hong Kong/8/68 (H3N2) infected in MDCK cells assessed as reduction in virus-induced cytopathic effect; type: toxicity, cell-based; settings: dog, read-out: Ratio CC50/EC50
[25] = Selectivity index, ratio of CC50 for cytotoxicity against MDCK cells to EC50 for antiviral activity against Influenza B virus B/Lee/40 infected in MDCK cells assessed as reduction in virus-induced cytopathic effect; type: toxicity, cell-based; settings: dog, read-out: Ratio CC50/EC50

Structure (SMILES): Cc1cn([C@@H]2S[C@H](CO)[C@@H](O)[C@H]2O)c(=O)[nH]c1=O
- EC50 (SARS-CoV-2 [1]): > 100 µM
- CC50 at 48 h [2]: > 100 µM

Structure (SMILES): Nc1nc2c(ncn2[C@@H]2S[C@H](CO)[C@@H](O)[C@H]2O)c(=O)[nH]1
- EC50 (SARS-CoV-2 [1]): 48.3 µM
- CC50 at 48 h [2]: > 100 µM
- selectivity ratio [3]: > 2.07

Structure (SMILES): Nc1ccn([C@@H]2S[C@H](CO)[C@@H](O)[C@H]2O)c(=O)n1
- EC50 (SARS-CoV-2 [1]): 2.4 µM
- CC50 at 48 h [2]: > 100 µM
- selectivity ratio [3]: > 41.7

Structure (SMILES): C[C@@]1(F)[C@H](O)[C@@H](COP(=O)(O)OP(=O)(O)OP(=O)(O)O)O[C@H]1n1cnc2c(=O)[nH]c(N)nc21
- inhibition [4]: Active

Structure (SMILES): CC(C)C(=O)OC[C@H]1O[C@@H](n2cc/c(=N\O)[nH]c2=O)[C@H](O)[C@@H]1O [MOLNUPIRAVIR]
- Activity (SARS-CoV-2 [5]): Active
- survival at 50 mg/kg (SARS-CoV-2 [6]): 60%
- Activity (SARS-CoV-2 [7]): Active

Structure (SMILES): N#C[C@@]1(c2ccc3c(N)ncnn23)O[C@H](COP(=O)(O)OP(=O)(O)OP(=O)(O)O)[C@@H](O)[C@H]1O
- inhibition ([8]; dose 100.0 µM, time 30.0 min): Not active; Formation Of 27-Mer Product Observed
- inhibition [9]: Not active; Formation Of Full-Length 40-Mer Product Is Still Prevented
- inhibition [10]: Minimal_effect

Structure (SMILES): O=c1ccn([C@@H]2S[C@H](COP(=O)(O)OP(=O)(O)OP(=O)(O)O)[C@@H](O)[C@H]2O)c(=O)[nH]1
- inhibition ([11]; 100 uM): Active; Compound Led To Rna Products Longer Than 20 Nucleotides But Did Not Reach 27-Mer Rna
- inhibition [12]: Dose-dependent-effect; Transcripts Remained Below 27 Nucleotides
- inhibition [13]: Dose-dependent-effect
- inhibition [14]: Dose-dependent-effect
- inhibition [15]: Active
- inhibition [16]: Active

Structure (SMILES): CC(C)OC(=O)[C@H](C)N[P@](=O)(OC[C@H]1S[C@@H](n2ccc(=O)[nH]c2=O)[C@H](O)[C@@H]1O)Oc1ccccc1
- EC50 (SARS-CoV-2 [1]): > 100 µM
- CC50 at 48 h [2]: > 100 µM

Structure (SMILES): O=c1nc(NO)ccn1[C@@H]1O[C@H](CO)[C@@H](O)[C@H]1O [N-HYDROXYCYTIDINE]
- EC50 (SARS-CoV-2 [1]): 1.03 µM
- CC50 at 48 h [2]: 38.6 µM
- selectivity ratio [3]: 37.5
- Activity (SARS-CoV-2 [17]): Active

Structure (SMILES): C[C@@]1(F)[C@H](O)[C@@H](COP(=O)(O)OP(=O)(O)OP(=O)(O)O)O[C@H]1n1ccc(=O)[nH]c1=O
- inhibition ([11]; dose 100.0 µM, time 30.0 min): inactive
- inhibition [18]: inactive

Structure (SMILES): Nc1ncnc2c1ncn2[C@@H]1S[C@H](CO)[C@@H](O)[C@H]1O
- EC50 (SARS-CoV-2 [1]): 8.82 µM
- CC50 at 48 h [2]: 94.3 µM
- selectivity ratio [3]: 10.7

Structure (SMILES): C[C@H](Cn1cnc2c(N)ncnc21)OCP(=O)(O)OP(=O)(O)OP(=O)(O)O
- inhibition ([8]; 100 uM): Active; Compound Produced A Primer Extension Of ~22 Nucleotides Similar To Atp Starvation Condition
- inhibition [19]: Active; Compound Produced A Primer Extension Of ~22 Nucleotides Similar To Atp Starvation Condition

Structure (SMILES): CC(C)C(=O)OC[C@H]1S[C@@H](n2ccc(=O)[nH]c2=O)[C@H](O)[C@@H]1O
- EC50 (SARS-CoV-2 [1]): 26.8 µM
- CC50 at 48 h [2]: > 100 µM
- selectivity ratio [3]: > 3.73

Structure (SMILES): NC(=O)c1ncn([C@@H]2O[C@H](CO)[C@@H](O)[C@H]2O)n1 [RIBAVIRIN]
- EC50 (dengue virus type 2): 3.47 µM
- CC50 [20]: > 100 µM
- selectivity ratio [21]: > 28.8
- EC50 (Influenza A virus (H1N1)): 17.3 µM
- EC50 (Influenza A virus): 17.2 µM
- EC50 (Influenza B virus): 15.7 µM
- CC50 at 72 h [22]: > 100 µM
- selectivity ratio [23]: > 5.77
- selectivity ratio [24]: > 5.82
- selectivity ratio [25]: > 6.39
